Reference: patent US6855669B2, “Use of α,β unsaturated aliphatic aldehydes and ketones to inhibit potato tuber sprouting” (Washington State University Research Foundation, priority 2000, dated 2005)
Marks after values point to notes of the source that are not given here.

How the values were obtained:
Format in all cases: in vivo, Solanum tuberosum
[1] = test system: Desiree potatoes (tubers); assay: Example 1: plant emergence and plant growth from treated tubers planted in greenhouse; details: 200 μL then 1000 μL in 9.2 L desiccator, 56 hour treatment, harvest 21 days after planting
Description: Methods: […] potatoes were produced in research plots at the Edmonton Research Station, University of Alberta in 1999. The tubers were harvested in September, washed, transported to Washington State University and placed in 4° C. storage in late October. Tubers, selected for uniform size, were taken from the storage area for the experiment in June. The 9-month-old tubers were fully emerged from dormancy after this prolonged storage interval; however, no sprout growth had occurred at the low storage temperature. The tubers were washed, air-dried, and evenly divided between two 9.2 liter (L) glass desiccators (8 tubers per desiccator). Trans-2-hexenal (200 μL) was pipetted into a 50 milliliter (mL) beaker that was placed inside one of the desiccators. The other desiccator served as control. Both desiccators were closed and the tubers were incubated in the two atmospheres for 32 hours. The desiccators were then opened, an additional 1000 μL of trans-2-hexenal was added to the beaker, and the desiccators were closed for an additional 24 hours. One tuber from each chamber was sampled for trans-2-hexenal content at the end of the 56 hour treatment interval. […] Time to plant emergence was recorded and plants were harvested 21 days after planting. Plants were separated into various components (e.g., stems, leaves) at harvest and the effects of trans-2-hexenal on plant morphology were assessed.

[2] = test system: Ranger Russet seed-tubers; assay: Example 2: etiolated sprout development and tuber quality, Ranger Russet; details: 4.7 mmol/kg potato tubers, 25 days
Description: (§1) Methods: Ten-month-old Ranger Russet, Umatilla and Russet Burbank seed-tubers were taken from 4° C. storage and treated with trans-2-hexenal in 9.2-L glass desiccators as described in Example 1. The tubers were exposed to trans-2-hexenal for 0, 12 and 24 hours at 23° C. at a concentration of 4.7 mmol/kg potato tubers. Regardless of exposure time, all tubers remained enclosed in the chambers for the entire 24 hour period. This was accomplished by introducing the trans-2-hexenal at zero-time (into the 24 hour treatment desiccator) and after 12 hour incubation (into the 12 hour treatment desiccator) through a septum in the top of the closed desiccator. The treated tubers were planted into moistened peat/perlite/soil potting mix and placed in the dark at 24° C. to stimulate sprouting. The experiment was set up in a randomized complete block design (5 replicates) with treatments (3 cultivars×3 exposure times) arranged factorially. Effects of trans-2-hexenal exposure and cultivar on etiolated sprout development and tuber quality were assessed 25 days after removal from the 4° C. storage.

[3] = test system: Russet Burbank seed-tubers; assay: Example 2: etiolated sprout development, tuber quality and soluble carbohydrates, Russet Burbank; details: 4.7 mmol/kg potato tubers, 25 days
Description: as §1

[4] = test system: Russet Burbank seed-tubers; assay: Example 3: potato tuber respiration (CO2 in outflow, infra-red gas analyzer); details: 0.96 mmol/kg
Description: (§2) Methods: Eleven-month-old Russet Burbank seed-tubers were taken from a 4° C. storage area and treated with 250 μL of trans-2-hexenal in a 9.2 liter (L) glass desiccator (0.96 mmol/kg potato tubers) for 12 hours at 23° C. The trans-2-hexenal was pipetted onto Whatman #1 filter paper in a glass petri dish (5.5 cm diameter) inside the desiccator. Control tubers were enclosed in a desiccator without trans-2-hexenal. Following treatment, the tubers were enclosed in 1 L […] chambers (3 tubers per chamber) that were placed at 15° C. A continuous airflow (approximately 80 mL/min; 21% O2, 79% N2) was established around the tubers through inlet and outlet ports in the lid of each chamber. Respiration rates were determined at four hour intervals over a 28 day storage period by quantifying CO2 in the outflow from each chamber with a LI-COR model 6262 infra-red gas analyzer (LI-COR Inc., Lincoln Nebr.). The experiment was set up in a randomized complete block design (5 replicates) with two treatments (control and trans-2-hexenal-treated). The effect of trans-2-hexenal exposure on the development of etiolated sprouts was assessed 28 days after removal from the 4° C. storage.

[5] = test system: Russet Burbank seed-tubers; assay: Example 3: etiolated sprout development and tuber quality after 28 days; details: 0.96 mmol/kg, 12 hours at 23° C.; 28 days at 15° C.
Description: as §2

[6] = test system: Russet Burbank seed tubers; assay: Example 4: sprout inhibition by aldehyde vapors, 26 days of sprouting; details: for Average Sprout Length / External Pit Rating (1-4 scale) / Sprout Fresh Weight: 12 hours vapor, 26 days at 18° C.
Description: Methods: Eleven-month-old Russet Burbank seed tubers were taken from a 4° C. storage area and exposed to trans-2-hexenal (0.6-4.3 mmol/kg), trans-2-heptenal (0.6-3.8 mmol/kg) and trans-2-octenal (0.5-2.5 mmol/kg) vapors separately in 3.9 L glass containers for 12 hours at 23° C. The aldehydes were applied to filter paper inside petri dishes within each jar. Control tubers were enclosed in a glass container without any aldehyde. Sprouts were ‘peeping’ (approximately 3 mm in length) at the time of treatment. Following treatment, tubers were placed at 18° C. (95% relative humidity) in the dark to sprout for 26 days. The experiment was set up in a randomized complete block design (5 replicates) with chemicals and concentrations arranged factorially. Effects of the aliphatic aldehydes on the development of etiolated sprouts were documented at 20 days (photographically) and 26 days of sprouting.

CCC/C=C/C=O [trans-2-hexenal]
sprouting, plant emergence and plant growth from potato tubers (in words) [1]: clearly inhibited sprouting
Average Sprout Length ([2]; 12 h exposure): 0 cm/tuber
External Pit Rating (1-4 scale) ([2]; 12 h exposure): 3.1
Soft Rot Lesions ([2]; 12 h exposure): 1.0 no/tuber
Sprout Fresh Weight ([2]; 12 h exposure): 0 g/tuber
Average Sprout Length ([2]; 24 h exposure): 0 cm/tuber
External Pit Rating (1-4 scale) ([2]; 24 h exposure): 3.7
Soft Rot Lesions ([2]; 24 h exposure): 1.2 no/tuber
Sprout Fresh Weight ([2]; 24 h exposure): 0 g/tuber
Average Sprout Length ([3]; 12 h exposure): 0 cm/tuber
External Pit Rating (1-4 scale) ([3]; 12 h exposure): 1.8
Soft Rot Lesions ([3]; 12 h exposure): 0.6 no/tuber
Soluble Carbohydrates Fru ([3]; 12 h exposure): 19.5 mg/g dry wt.
Soluble Carbohydrates Glu ([3]; 12 h exposure): 19.0 mg/g dry wt.
Soluble Carbohydrates Glu + Fru ([3]; 12 h exposure): 38.5 mg/g dry wt.
Soluble Carbohydrates Suc ([3]; 12 h exposure): 6.30 mg/g dry wt.
Sprout Fresh Weight ([3]; 12 h exposure): 0 g/tuber
Average Sprout Length ([3]; 24 h exposure): 0 cm/tuber
External Pit Rating (1-4 scale) ([3]; 24 h exposure): 2.2
Soft Rot Lesions ([3]; 24 h exposure): 0.4 no/tuber
Soluble Carbohydrates Fru ([3]; 24 h exposure): 17.8 mg/g dry wt.
Soluble Carbohydrates Glu ([3]; 24 h exposure): 16.5 mg/g dry wt.
Soluble Carbohydrates Glu + Fru ([3]; 24 h exposure): 34.3 mg/g dry wt.
Soluble Carbohydrates Suc ([3]; 24 h exposure): 6.28 mg/g dry wt.
Sprout Fresh Weight ([3]; 24 h exposure): 0 g/tuber
time after treatment at which respiration reached a level equal to the untreated tubers ([4]; 12 hours, storage at 15° C.): ≤ 32 h
respiration lower than control tubers ([4]; by the end of the study (27 day storage at 15° C.)): 2.5 fold
respiration rate greater than untreated tubers ([4]; immediately following the 12 hour treatment period): 38%
Average Sprout Length [5]: 0** cm/tuber
Sprout fresh wt [5]: 0** g/tuber
Tuber external pit rating [5]: 2.2**
Tuber fresh wt loss [5]: 11.8** g/tuber
Average Sprout Length ([6]; 0.63 mmol/kg): 0.2 cm/tuber
External Pit Rating (1-4 scale) ([6]; 0.63 mmol/kg): 1.4
Sprout Fresh Weight ([6]; 0.63 mmol/kg): 0.04 g/tuber
Average Sprout Length ([6]; 1.33 mmol/kg): 0 cm/tuber
External Pit Rating (1-4 scale) ([6]; 1.33 mmol/kg): 2.0
Sprout Fresh Weight ([6]; 1.33 mmol/kg): 0 g/tuber
Average Sprout Length ([6]; 2.06 mmol/kg): 0 cm/tuber
External Pit Rating (1-4 scale) ([6]; 2.06 mmol/kg): 2.6
Sprout Fresh Weight ([6]; 2.06 mmol/kg): 0 g/tuber
Average Sprout Length ([6]; 2.50 mmol/kg): 0 cm/tuber
External Pit Rating (1-4 scale) ([6]; 2.50 mmol/kg): 3.5
Sprout Fresh Weight ([6]; 2.50 mmol/kg): 0 g/tuber
Average Sprout Length ([6]; 4.34 mmol/kg): 0 cm/tuber
External Pit Rating (1-4 scale) ([6]; 4.34 mmol/kg): 2.8
Sprout Fresh Weight ([6]; 4.34 mmol/kg): 0 g/tuber
external pitting (in words) ([6]; lowest concentration): minimal
